Measured values reported in publication PMC8150775, “Repositioning Azelnidipine as a Dual Inhibitor Targeting CD47/SIRPα and TIGIT/PVR Pathways for Cancer Immuno-Therapy” (Biomolecules, 2021).

Experiments:
human CD47/SIRPα = molecular target: T1, human CD47/SIRPα (Homo sapiens, UniProt P78324); assay: Blocking assay, human SIRPα protein binding to CHOK1-hCD47 cells; conditions: concentration gradient; read-out: IC50, blocking human CD47/SIRPα (hSirpα binding)
T1 construct: purchased ACRO Biosystem SIA-H5251; host or cells: soluble protein purchased; CD47 on CHOK1-hCD47 cells (lenti-viral transfection)
T1 sequence (P78324 31-370 limits assumed): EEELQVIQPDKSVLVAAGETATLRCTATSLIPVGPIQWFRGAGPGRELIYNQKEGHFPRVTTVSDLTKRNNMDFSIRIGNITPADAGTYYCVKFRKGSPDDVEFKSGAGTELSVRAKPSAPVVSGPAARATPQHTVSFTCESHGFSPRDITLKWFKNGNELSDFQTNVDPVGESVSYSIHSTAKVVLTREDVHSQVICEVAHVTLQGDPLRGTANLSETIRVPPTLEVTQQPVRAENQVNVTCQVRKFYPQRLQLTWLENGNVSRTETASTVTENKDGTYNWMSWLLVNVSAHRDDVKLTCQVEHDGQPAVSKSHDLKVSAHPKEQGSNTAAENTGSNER
Experimental: (§1) The abilities of small molecule inhibitors (SMIs) (purchased from TargetMol, Shanghai, China) to block the binding of SIRPα protein to CHOK1-CD47 cells or PVR protein to CHOK1-TIGIT cells were determined by flow cytometry, as previously reported. The SMIs at indicated concentrations were incubated with Fc-tagged SIRPα or PVR protein for 30 min at 4°C, followed by incubating with the indicated cells for another 30 min. Human SIRPα protein (SIA-H5251, ACRO Biosystem, Beijing, China), mouse SIRPα protein (SIA-M5258, ACRO Biosystem, Beijing, China), human PVR protein (CD5-H82F6, ACRO Biosystem, Beijing, China), and mouse PVR protein (50259-M03H, Sino Biological, Beijing, China) were used. PE-conjugated anti-human IgG antibody was used to detect the Fc protein bind to cells. Cells incubated with the Fc proteins and anti-human IgG antibody without the SMIs serve as the positive control. The mean fluorescent intensity (MFI) of each sample was detected and recorded by a flow cytometry. The blocking efficacy of the SMIs was calculated as the equation: (MFI of the positive control-MFI of the SMI)/MFI of the positive control × 100%.

TIGIT/PVR interaction = molecular target: T2, TIGIT/PVR interaction (Homo sapiens, UniProt P15151); assay: Blocking assay by flow cytometry, preliminary screening at a single concentration, TIGIT/PVR; format: binding; conditions: preliminary test, single concentration of 100 μM
T2 construct: purchased ACRO Biosystem CD5-H82F6; host or cells: CHOK1-TIGIT cells (lenti-viral transfection)
T2 sequence (P15151 21-343 limits assumed): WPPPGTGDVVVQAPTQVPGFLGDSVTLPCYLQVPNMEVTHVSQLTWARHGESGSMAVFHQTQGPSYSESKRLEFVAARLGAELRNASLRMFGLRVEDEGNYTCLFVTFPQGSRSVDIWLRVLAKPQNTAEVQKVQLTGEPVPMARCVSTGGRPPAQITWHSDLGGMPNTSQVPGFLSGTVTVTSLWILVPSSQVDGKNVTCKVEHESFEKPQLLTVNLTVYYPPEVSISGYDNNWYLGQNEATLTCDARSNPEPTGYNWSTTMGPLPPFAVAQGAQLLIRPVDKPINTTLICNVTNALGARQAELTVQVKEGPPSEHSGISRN
Experimental: as §1
The small molecule inhibitor could not only bind to the target; most importantly, it should interfere with the receptor–ligand interactions. Subsequently, the candidate inhibitors were screened by the blocking assays with the established CD47 and TIGIT over-expressing cell lines. The test was initialed with a preliminary screening of the candidates with a single concentration (Figure 2D). Generally, the SMI blocking efficacy to the CD47/SIRPα interaction was much higher than that of the TIGIT/PVR. […] Therefore, the SMI-F11 and SMI-F17 may exert dual blocking effects in the CD47/SIRPα and TIGIT/PVR pathways. Blocking assays with a concentration gradient of the SMI were further performed to validate the preliminary screening. […] The similar blocking assays with the mouse CD47 and TIGIT over-expressing cells were also performed. […] Considering that most pairs of the immune checkpoints interact with the corresponding ligand in parallel forms, the blocking assays with the PD-1/PD-L1 interaction system was also conducted to test the specificity.

PVR = assay: Flow cytometry of PVR expression on tumor cells from CT26-bearing mice; format: in vivo, mouse; conditions: 5 mg/kg for twelve days, CD45- tumor cells
Experimental: Cells in good growth condition were harvested and used to detect the expression of CD47 and PVR. Antibodies anti-human CD47 APC, anti-human PVR PE, anti-mouse-CD47 APC, anti-mouse-PVR APC, and matched isotype controls were purchased from eBioscience, San Diego, CA, USA. The effects of azelnidipine on the expression of CD47 and PVR was determined by incubating CT26 cells with 20 μM of azelnidipine for 24 h, or directly analyzing the tumor cells from tumor tissues of CT26-bearing mice treated with or without azelnidipine.
Figure S3. The effects of Azelnidipine on the expression of CD47 and PVR on CT26 tumor cells. (A and B) CT26 cells were incubated with 20 μM Azelnidipine or vehicle control for 24h, and analyzed the expression of CD47 (A) and PVR (B). The gray shaded histogram represents the isotype, the red line represents the cells treated with vehicle control, and the blue line represents the cells treated with Azelnidipine. (C and D) Tumor cells (CD45-) derived from the tumor tissues of CT26 tumor-bearing mice treated with normal saline (NS) or 5 mg/kg Azelnidipine for twelve days, were analyzed for the expression of CD47 (C) and PVR (D). n.s. means not […]
(1 picture or pasted object on this page, not shown here)

Structure (SMILES): CC1=C(C(=O)OC(C)C)C(c2cccc([N+](=O)[O-])c2)C(C(=O)OC2CN(C(c3ccccc3)c3ccccc3)C2)=C(N)N1 (stereo not drawn) [Azelnidipine]
- IC50 (human CD47/SIRPα): ~36 µM
- activity in interfering with the TIGIT/PVR interaction (TIGIT/PVR interaction): better activities
- expression of PVR on CT26 tumor cells derived from tumor tissues (PVR): could inhibit the expression of PVR
